Source: patent US20250129076A1, “FUSED TETRACYCLIC COMPOUNDS, COMPOSITIONS AND DIAGNOSTIC APPLICATIONS THEREOF” (priority 2021, published 2025)
Entries after “also recorded” stand apart in the source; their conditions may differ.

What was measured:
DNA [1] = experiment: Detection of DNA binding by the compounds (Table 2); conditions: yes = binding detected, empty cells not reported
Calf Thymus DNA (CT-DNA) = experiment: Increase in fluorescence upon binding with Calf Thymus DNA; conditions: figure legends FIG. 12-22
Description: 1 mg/ml stock solutions of all the compounds were prepared in DMSO. Few insoluble compounds were then dissolved in non-polar solvent. 10 ul (1 mg/ml) of each of the compounds were used to do an absorbance scan in the TECAN nano reader and the graphs were plotted. The absorbance peaks for each of the compounds were tabulated and further used as excitation wavelength for fluorescence scans. Initially an absorbance scan was performed to identify the excitation maxima after which the excitation wavelength was used to obtain the emission maxima/fluorescence plots. Once the excitation and emission maxima were known, different concentrations of the compounds were used starting from 10 ng to saturating concentrations to obtain fluorescent spectra. Similarly, a fixed concentration of the compound was used to which an increasing concentration of DNA/RNA was added until saturation to find the nucleic acid binding properties of the dyes and compounds. In addition, a fixed concentration of DNA/RNA was used, to which increasing concentrations of the compounds were added until saturation. The data obtained was plotted and used for calculating binding constants and determining the binding ability of the dyes and compounds. 1 mg/ml stock solutions of all compounds the were prepared in DMSO. Few insoluble compounds were then dissolved in nonpolar solvent. 10 ul (1 mg/ml) of each of the compounds were used to do an absorbance scan in the TECAN nano reader and the graphs were plotted. The absorbance peaks for each of the compounds were tabulated and further used as excitation wavelength for fluorescence scans. Initially an absorbance scan was performed to identify the excitation maxima after which the excitation wavelength was used to obtain the fluorescence plots. Once the excitation and emission maxima were known, different concentrations of the compounds were used starting from 10 ng to saturating concentrations to obtain fluorescent spectra. Similarly, a fixed concentration of the said compound was used to which an increasing concentration of DNA/RNA was added until saturation to find the nucleic acid binding properties of the dyes and compounds. In addition, a fixed concentration of DNA/RNA was used, to which increasing concentrations of the compounds were added until saturation. The data obtained was plotted and used for calculating binding constants and determining the binding ability of the dyes and compounds.

RNA = experiment: Detection of RNA binding by the compounds (Table 2); conditions: yes = binding detected, empty cells not reported
[2] = Absorbance and fluorescence scans (excitation and emission maxima); type: physicochemical; parameters: unit not given here; conditions: compound alone; Table 6
Description: 1 mg/ml stock solutions of all the compounds were prepared in DMSO. Few insoluble compounds were then dissolved in non-polar solvent. 10 ul (1 mg/ml) of each of the compounds were used to do an absorbance scan in the TECAN nano reader and the graphs were plotted.
The absorbance peaks for each of the compounds were tabulated and further used as excitation wavelength for fluorescence scans. Initially an absorbance scan was performed to identify the excitation maxima after which the excitation wavelength was used to obtain the emission maxima/fluorescence plots. Once the excitation and emission maxima were known, different concentrations of the compounds were used starting from 10 ng to saturating concentrations to obtain fluorescent spectra. Similarly, a fixed concentration of the compound was used to which an increasing concentration of DNA/RNA was added until saturation to find the nucleic acid binding properties of the dyes and compounds. In addition, a fixed concentration of DNA/RNA was used, to which increasing concentrations of the compounds were added until saturation. The data obtained was plotted and used for calculating binding constants and determining the binding ability of the dyes and compounds. […]
(§1) 1 mg/ml stock solutions of all compounds the were prepared in DMSO. Few insoluble compounds were then dissolved in nonpolar solvent. 10 ul (1 mg/ml) of each of the compounds were used to do an absorbance scan in the TECAN nano reader and the graphs were plotted. The absorbance peaks for each of the compounds were tabulated and further used as excitation wavelength for fluorescence scans. Initially an absorbance scan was performed to identify the excitation maxima after which the excitation wavelength was used to obtain the fluorescence plots. Once the excitation and emission maxima were known, different concentrations of the compounds were used starting from 10 ng to saturating concentrations to obtain fluorescent spectra. Similarly, a fixed concentration of the said compound was used to which an increasing concentration of DNA/RNA was added until saturation to find the nucleic acid binding properties of the dyes and compounds. In addition, a fixed concentration of DNA/RNA was used, to which increasing concentrations of the compounds were added until saturation. The data obtained was plotted and used for calculating binding constants and determining the binding ability of the dyes and compounds.

DNA [3] = experiment: Emission maxima with DNA; type: binding; conditions: Table 6
Description: The absorbance peaks for each of the compounds were tabulated and further used as excitation wavelength for fluorescence scans. Initially an absorbance scan was performed to identify the excitation maxima after which the excitation wavelength was used to obtain the emission maxima/fluorescence plots. Once the excitation and emission maxima were known, different concentrations of the compounds were used starting from 10 ng to saturating concentrations to obtain fluorescent spectra. Similarly, a fixed concentration of the compound was used to which an increasing concentration of DNA/RNA was added until saturation to find the nucleic acid binding properties of the dyes and compounds. In addition, a fixed concentration of DNA/RNA was used, to which increasing concentrations of the compounds were added until saturation. The data obtained was plotted and used for calculating binding constants and determining the binding ability of the dyes and compounds.
as §1

RNA of E. coli BL21 = experiment: Working concentration of compound (25) for RNA detection, agarose gel electrophoresis; type: binding; conditions: 10-50 ng RNA with 5, 10, 20, 40 ng of compound 25; 1% agarose gel, TBE buffer
Description: To check the working concentration of compound (25) using different concentrations of RNA, RNA of E. coli BL21 was isolated and diluted to 10 ng/μl from the stock. Using a TBE buffer 1% agarose gel was casted and gel electrophoresis is performed using 10-50 ng concentration of RNA with 5, 10, 20, 40 ng of compound 25.

Protein = experiment: Detection of protein binding by the compounds (Table 2); conditions: yes = binding detected, empty cells not reported
Source text: Absorbance Spectra and Fluorescence Spectra conditions for compound+DNA/RNA/Protein Methods of experimentation: An Excitation Max: 488 nm, Emission Max: 560 nm, Band width: 488-600 nm on Alexa Fluor 488 channel were used for flow cytometry and microscopic determinations TECAN spectrofluorimeter.

[4] = Comparison with commonly available DNA staining agents: photostability (Table 3); type: physicochemical
[5] = Comparison with commonly available DNA staining agents: toxicity (Table 3); conditions: Hoescht and DAPI cells wrap: 'Potentially carcinogenic & Mutagenic'
double-stranded DNA = conditions: when bound; cited from earlier work

COc1cc(/C=C2\COc3cc(O)ccc3C2=O)ccc1O [Compound 007]
DNA (binding detected) (DNA [1]): yes
increase in fluorescence upon binding with Calf Thymus DNA (CT-DNA) (Calf Thymus DNA (CT-DNA)): 25 fold
RNA (binding detected) (RNA): Yes

COc1ccc2c(c1)OC/C(=C\c1ccc(OC)c(OC)c1)C2=O [Compound 009]
increase in fluorescence upon binding with Calf Thymus DNA (CT-DNA) (Calf Thymus DNA (CT-DNA)): 15 fold
RNA (binding detected) (RNA): yes

O=C1/C(=C/c2ccc(O)c(O)c2)COc2cc(O)ccc21 [Compound 015]
DNA (binding detected) (DNA [1]): yes
Emission maxima [2]: 570
Excitation Maxima [2]: 490
Emission maxim with DNA (DNA [3]): 610 nm
RNA (binding detected) (RNA): yes

Cc1ccc2c(c1)OC/C(=C\c1ccc(C)c(C)c1)C2=O [Compound 016]
DNA (binding detected) (DNA [1]): yes
increase in fluorescence upon binding with Calf Thymus DNA (CT-DNA) (Calf Thymus DNA (CT-DNA)): 5 fold
Emission maxima [2]: 610
Excitation Maxima [2]: 490
Emission maxim with DNA (DNA [3]): 610 nm

Oc1ccc2c(c1)OC[C@](O)(Cc1ccc(O)c(O)c1)[C@H]2O [Compound 017]
DNA (binding detected) (DNA [1]): yes
increase in fluorescence upon binding with Calf Thymus DNA (CT-DNA) (Calf Thymus DNA (CT-DNA)): > 1000 fold
RNA (binding detected) (RNA): yes

O=C1C=C2C(=C[C@@]3(O)COc4cc(O)ccc4[C@@H]23)C=C1O [Compound 019]
DNA (binding detected) (DNA [1]): yes
increase in fluorescence upon binding with Calf Thymus DNA (CT-DNA) (Calf Thymus DNA (CT-DNA)): > 1000 fold
Emission maxima [2]: 570
Excitation Maxima [2]: 490
Emission maxim with DNA (DNA [3]): 570 nm

COc1ccc2c(c1)SCC1=C2c2cc(OC)c(OC)cc2C1 [Compound 021]
RNA (binding detected) (RNA): yes

CN1C/C(=C\c2ccc(O)c(O)c2)C(=O)c2ccc(O)cc21 [Compound 025]
increase in fluorescence upon binding with Calf Thymus DNA (CT-DNA) (Calf Thymus DNA (CT-DNA)): > 1000 fold
RNA (binding detected) (RNA): yes
RNA bands on gel (RNA of E. coli BL21): bands are in all the wells

Cc1ccc(C)cc1 [Compound 026]
DNA (binding detected) (DNA [1]): yes
Emission maxima [2]: 580
Excitation Maxima [2]: 490
Emission maxim with DNA (DNA [3]): 590 nm
RNA (binding detected) (RNA): yes

CCc1cc(O)ccc1C(=O)/C=C/C1=CC(OC)C(O)C=C1 (centres unmarked) [Compound 031]
Emission maxima [2]: 610
Excitation Maxima [2]: 490
Emission maxim with DNA (DNA [3]): 610 nm
RNA (binding detected) (RNA): yes

Cc1cc2c(cc1O)OC[C@]1(O)Cc3cc(O)c(O)cc3[C@H]21 [Compound 032]
Emission maxima [2]: 570
Excitation Maxima [2]: 490
Emission maxim with DNA (DNA [3]): 570 nm

Oc1ccc2c(c1)OC[C@]1(O)Cc3cc(O)c(O)cc3[C@H]21 [Compound 033]
DNA (binding detected) (DNA [1]): yes
increase in fluorescence upon binding with Calf Thymus DNA (CT-DNA) (Calf Thymus DNA (CT-DNA)): > 1000 fold
RNA (binding detected) (RNA): yes

Oc1cc2c(cc1O)[C@@H]1c3cc(-c4ccccc4)c(O)cc3OC[C@]1(O)C2 [Compound 035]
Protein (binding detected) (Protein): yes
increase in fluorescence upon binding with Calf Thymus DNA (CT-DNA) (Calf Thymus DNA (CT-DNA)): > 1000 fold
Emission maxima [2]: 580
Excitation Maxima [2]: 490
Emission maxim with DNA (DNA [3]): 580 nm
RNA (binding detected) (RNA): yes

Oc1cc2c(cc1O)[C@@H]1c3cc(-c4ccc(F)cc4)c(O)cc3OC[C@]1(O)C2 [Compound 037]
Protein (binding detected) (Protein): yes
DNA (binding detected) (DNA [1]): yes
increase in fluorescence upon binding with Calf Thymus DNA (CT-DNA) (Calf Thymus DNA (CT-DNA)): > 1000 fold
RNA (binding detected) (RNA): yes

COc1cc2c(cc1OC)[C@@H]1c3cc(-c4ccccc4)c(OC)cc3N(S(=O)(=O)c3ccc(C)cc3)C[C@]1(O)C2 [Compound 038]
increase in fluorescence upon binding with Calf Thymus DNA (CT-DNA) (Calf Thymus DNA (CT-DNA)): 2 fold
RNA (binding detected) (RNA): yes

Cc1ccc(S(=O)(=O)N2C[C@]3(O)Cc4cc(O)c(O)cc4[C@@H]3c3cc(-c4ccc(F)cc4)c(O)cc32)cc1 [Compound 039]
DNA (binding detected) (DNA [1]): yes

N=C(N)c1ccc(-c2cc3ccc(C(=N)N)cc3[nH]2)cc1 [DAPI]
Photostability [4]: 10 min
Toxicity [5]: carcinogenic; also recorded: & Mutagenic

CCCN(CCCN(C)C)c1cc(/C=C2/Sc3ccccc3N2C)c2ccccc2[n+]1-c1ccccc1 [SYBR Green]
absorbs at a wavelength (double-stranded DNA): around 497 nm
emits fluorescence (double-stranded DNA): around 530 nm
